Measured values published in PMC7230731 (Marine Drugs, 2020).

Experiments:
MCF-7 cells = experiment: SRB antiproliferative assay, MCF-7; assay type: cell-based, human; conditions: for IC50: MCF-7 breast cancer cells, SRB assay, 48 h, mean ± S.D. of three experiments; for potency relative to Staurosporine, MCF-7: ratio of IC50 values, MCF-7 cells
Method: (§1) 1. Anti-proliferative action toward human breast cell lines […]
(§2) and non-tumorigenic human breast epithelial cell line (MCF-10A) have been obtained from American Type Culture Collection (ATCC). The cells were maintained in Dulbecco's modified Eagle's medium (DMEM) supplemented with 10% heat inactivated fetal calf serum (GIBCO), penicillin (100 U/ml) and streptomycin (100 µg/ml) at 37 °C in humidified atmosphere containing 5% CO2. […]
(§3) grown in a 25 cm2 flask in 5 ml of culture medium.
(§4) The anti-proliferative activity of the tested compounds was measured in vitro using the Sulfo-Rhodamine-B stain (SRB) assay. Briefly, Cells were inoculated in 96-well microtiter plate (5X104 cells/ well) for 24 h before treatment with the tested compounds to allow attachment of cell to the wall of the plate. Tested compounds were dissolved in DMSO at 1 mg/ml immediately before use and diluted to the appropriate volume just before addition to the cell culture. Different concentrations of tested compounds, doxorubicin and sorafenib were added to the cells (three wells were prepared for each […]
(§5) atmosphere of 5% CO2. After 48 h cells were fixed, washed, and stained for 30 min with 0.4% (w/v) SRB dissolved in 1% acetic acid. Unbound dye was removed by four washes with 1% acetic acid, and attached stain was recovered with Tris-EDTA buffer. Color intensity was measured in an ELISA reader. The relation between percent of surviving fraction and drug concentration is plotted to get the survival curve for each cell line. […]

MDA-MB-231 cells = experiment: SRB antiproliferative assay, MDA-MB-231; assay type: cell-based, human; conditions: for IC50: MDA-MB-231 triple-negative breast cancer cells, SRB assay, 48 h, mean ± S.D. of three experiments; for potency relative to non-brominated counterpart (9g vs 9d, 9h vs 9e), MDA-MB-231 / potency relative to Staurosporine, MDA-MB-231: ratio of IC50 values, MDA-MB-231 cells
Method: as §1, §2, §3, §4, §5

MCF-10A cells = experiment: SRB cytotoxicity assay, non-tumorigenic MCF-10A; assay type: cell-based, human; conditions: for Selectivity Index MCF-10A/MCF-7: IC50 MCF-10A / IC50 MCF-7; for IC50: non-tumorigenic human breast epithelial MCF-10A cells, SRB assay
Excerpt: The two examined human breast cancer cell lines (MCF-7 and Breast MDA-MB-231), and non-tumorigenic human breast epithelial cell line (MCF-10A) have been obtained from the American Type Culture Collection (ATCC). Assessment of cytotoxicity for target indole derivatives has been performed following the SRB colorimetric assay procedures, as reported earlier.
1. Anti-proliferative action toward human breast cell lines
The two examined human breast cancer cell lines (MCF-7 and Breast MDA-MB-231), and non-tumorigenic human breast epithelial cell line (MCF-10A) have been obtained from American Type Culture Collection (ATCC). The cells were maintained in Dulbecco's modified Eagle's medium (DMEM) supplemented with 10% heat inactivated fetal calf serum (GIBCO), penicillin (100 U/ml) and streptomycin (100 µg/ml) at 37 °C in humidified atmosphere containing 5% CO2. Cells at a concentration of 0.50 x 106 were grown in a 25 cm2 flask in 5 ml of culture medium.
The anti-proliferative activity of the tested compounds was measured in vitro using the Sulfo-Rhodamine-B stain (SRB) assay. Briefly, Cells were inoculated in 96-well microtiter plate (5X104 cells/ well) for 24 h before treatment with the tested compounds to allow attachment of cell to the wall of the plate. Tested compounds were dissolved in DMSO at 1 mg/ml immediately before use and diluted to the appropriate volume just before addition to the cell culture. Different concentrations of tested compounds, doxorubicin and sorafenib were added to the cells (three wells were prepared for each individual dose). Cells were incubated with the compounds for 48 h at 37°C and in atmosphere of 5% CO2. After 48 h cells were fixed, washed, and stained for 30 min with 0.4% (w/v) SRB dissolved in 1% acetic acid. Unbound dye was removed by four washes with 1% acetic acid, and attached stain was recovered with Tris-EDTA buffer. Color intensity was measured in an ELISA reader. The relation between percent of surviving fraction and drug concentration is plotted to get the survival curve for each cell line. […]

CDK2 = molecular target: T1, CDK2 (Homo sapiens, UniProt P24941); experiment: CDK2 kinase inhibition (Reaction Biology HotSpot); assay type: biochemical; conditions: single dose of 10 µM; for % Enzyme Inhibitory Activity: 10 µM; for inhibition at 10 µM: read-out: % Enzyme Inhibitory Activity
T1 construct: purchased Reaction Biology Corp. (Kinase HotSpot service)
Method: The in vitro CDK2 kinase inhibition assay was carried out by Reaction Biology Corp. (Reaction Biology Corp., Chester, PA, USA) Kinase HotSpotSM service (http://www.reactionbiology.com).
5. CDK2 kinase inhibitory activity
Reaction Biology Corp. Kinase HotSpotSM service
(http://www.reactionbiology.com) was used for screening of tested compounds. CDK2 Kinase inhibitory activity was assessed by the HotSpot assay platform, which contained specific kinase/substrate pairs along with required cofactors. Base reaction buffer:
0.1 mM Na3VO4, 2 mM DTT, 1% DMSO. Testing compounds were dissolved in 100% DMSO to specific concentration. The serial dilution was conducted by Integra Viaflo Assist in DMSO. The reaction mixture containing the examined compound and 33P-ATP was incubated at room temperature for 2 h and radioactivity was detected by filter-binding method. Kinase activity data were expressed as the percent remaining kinase activity in test samples compared to vehicle (dimethyl sulfoxide) reactions.

Compound | IC50 (MCF-7 cells; Homo sapiens, MCF7, 48 h) [µM] | IC50 (MDA-MB-231 cells; Homo sapiens, MDA-MB-231, 48 h) [µM] | potency relative to non-brominated counterpart (9g vs 9d, 9h vs 9e), MDA-MB-231 (MDA-MB-231 cells) [times] | Selectivity Index MCF-10A/MCF-7 (MCF-10A cells) | IC50 (MCF-10A cells) [µM] | melting point [°C] | IC50 (MDA-MB-231 cells) [µM] | potency relative to Staurosporine, MCF-7 (MCF-7 cells) [times] | % Enzyme Inhibitory Activity (CDK2) [%] | inhibition at 10 µM (CDK2) [%] | IC50 (MCF-7 cells) [µM] | potency relative to Staurosporine, MDA-MB-231 (MDA-MB-231 cells) [times]
O=C(Cc1c[nH]c2ccccc12)NN=C1C(=O)N(Cc2ccc(F)cc2)c2ccc(Br)cc21 [Compound 9h, N′-(5-Bromo-1-(4-fluorobenzyl)-2-oxoindolin-3-ylidene)-2-(1H-indol-3-yl)acetohydrazide] | 20.89 ± 0.04 | 2.29 ± 0.09 | 7.7 | 1.2 | 26.1 | 183 to 185 | – | – | – | – | – | –
CN[C@@H]1C[C@H]2O[C@@](C)([C@@H]1OC)n1c3ccccc3c3c4c(c5c6ccccc6n2c5c31)C(=O)NC4 [Staurosporine, reference compound] | 6.81 ± 0.22 | – | – | – | – | – | – | – | – | – | – | –
O=C(Cc1c[nH]c2ccccc12)NN=C1CCCc2ccccc21 [Compound 11, N′-(3,4-Dihydronaphthalen-1(2H)-ylidene)-2-(1H-indol-3-yl)acetohydrazide] | 84.7 ± 4.02 | > 100 | – | – | – | 244 to 245 | > 100 | – | – | – | – | –
O=C(Cc1c[nH]c2ccccc12)NN=C1C(=O)Nc2ccc(F)cc21 [Compound 7a, N′-(5-Fluoro-2-oxoindolin-3-ylidene)-2-(1H-indol-3-yl)acetohydrazide] | 1.53 ± 0.02 | 9.04 ± 0.32 | – | 9.2 | 14.1 | 281 to 283 | – | 4.45 | 41 | 44 | – | –
O=C(Cc1c[nH]c2ccccc12)NN=C1C(=O)N(Cc2ccc(F)cc2)c2ccccc21 [Compound 9e, N′-(1-(4-Fluorobenzyl)-2-oxoindolin-3-ylidene)-2-(1H-indol-3-yl)acetohydrazide] | 10.4 ± 0.81 | 17.7 ± 0.55 | – | 4.7 | 48.4 | 227 to 229 | – | – | – | – | – | –
CCCN1C(=O)C(=NNC(=O)Cc2c[nH]c3ccccc23)c2ccccc21 [Compound 9b, 2-(1H-Indol-3-yl)-N′-(2-oxo-1-propylindolin-3-ylidene)acetohydrazide] | 28.2 ± 1.53 | 51.3 ± 3.59 | – | – | – | 207 to 208 | – | – | – | – | – | –
Cc1cc(C)c2c(c1)C(=NNC(=O)Cc1c[nH]c3ccccc13)C(=O)N2 [Compound 7f, N′-(5,7-Dimethyl-2-oxoindolin-3-ylidene)-2-(1H-indol-3-yl)acetohydrazide] | > 100 | 77.3 ± 6.21 | – | – | – | 294 to 296 | – | – | – | – | > 100 | –
O=C(Cc1c[nH]c2ccccc12)NN=C1C(=O)Nc2ccc(Cl)cc21 [Compound 7b, N′-(5-Chloro-2-oxoindolin-3-ylidene)-2-(1H-indol-3-yl)acetohydrazide] | 8.87 ± 0.43 | 2.88 ± 0.08 | – | 4.5 | 39.5 | 292 to 294 | – | – | 41 | 44 | – | –
Cc1ccc2c(c1)C(=NNC(=O)Cc1c[nH]c3ccccc13)C(=O)N2 [Compound 7d, 2-(1H-Indol-3-yl)-N′-(5-methyl-2-oxoindolin-3-ylidene)acetohydrazide] | 11 ± 0.81 | 0.34 ± 0.02 | – | 5.0 | 54.9 | > 300 | – | – | – | 58 | – | 30.3
N#Cc1ccc(CN2C(=O)C(=NNC(=O)Cc3c[nH]c4ccccc34)c3ccccc32)cc1 [Compound 9f, N′-(1-(4-Cyanobenzyl)-2-oxoindolin-3-ylidene)-2-(1H-indol-3-yl)acetohydrazide] | 8.72 ± 0.39 | 25.4 ± 1.56 | – | 4.8 | 42 | 233 to 234 | – | – | – | – | – | –
O=C(Cc1c[nH]c2ccccc12)NN=C1C(=O)N(Cc2ccccc2)c2ccccc21 [Compound 9d, N′-(1-Benzyl-2-oxoindolin-3-ylidene)-2-(1H-indol-3-yl)acetohydrazide] | 1.51 ± 0.03 | 4.14 ± 0.19 | – | 12.7 | 19.1 | 223 to 225 | – | 4.5 | – | – | – | 2.5
O=C(Cc1c[nH]c2ccccc12)NN=C1C(=O)Nc2ccc(Br)cc21 [Compound 7c, N′-(5-Bromo-2-oxoindolin-3-ylidene)-2-(1H-indol-3-yl)acetohydrazide] | 36.2 ± 2.78 | 36.6 ± 1.81 | – | – | – | > 300 | – | – | – | – | – | –
N′-(1-(sec-Butyl)-2-oxoindolin-3-ylidene)-2-(1H-indol-3-yl)acetohydrazide [Compound 9c] | – | – | – | – | – | – | > 100 | – | – | – | 47.1 ± 3.65 | –
O=C(Cc1c[nH]c2ccccc12)NN=C1C(=O)N(Cc2ccccc2)c2ccc(Br)cc21 [Compound 9g, N′-(1-Benzyl-5-bromo-2-oxoindolin-3-ylidene)-2-(1H-indol-3-yl)acetohydrazide] | 2.76 ± 0.14 | 2.85 ± 0.07 | 1.5 | 6.2 | 17.2 | 210 to 211 | – | – | – | – | – | –
